According to ChEMBL document CHEMBL1201862, “PubChem BioAssay data set” (2004):
Active and inactive are the calls of the source.

Key:
cells [1] = assay type: functional, cell-based
Streptococcus = assay: Group A Streptococcus viability loss, dose response, counter-screen for streptokinase expression inhibitor project, luminescence, BacTiterGlo (AID 1915); assay type: functional, organism-based;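 also: potency for reduction of bacterial viability or growth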
[2] = target: T1, Small ubiquitin-related modifier 1 (Homo sapiens, UniProt P63165); assay: inhibitors of SUMO1 partner interactions, dose response, biochemical, FRET (AID 624383); assay type: functional; settings: read-out: IC50_Mean
[3] = target: T1, Small ubiquitin-related modifier 1; assay: inhibitors of SUMO1 peptide binding, dose response, biochemical, fluorescence polarization, uHTS hits (AID 624382); assay type: functional; settings: read-out: IC50_Mean
Streptokinase A = target: T2, Streptokinase A (Streptococcus pyogenes serotype M1, UniProt P10520); assay: S. pyogenes streptokinase expression inhibitors, potency, dose response, plasminogen activation absorbance, OD405 (AID 1914); assay type: functional, Streptococcus pyogenes M1 GAS;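 also: secreted streptokinase activity via plasminogen activation per viability signal from cell pellet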
T2 sequence (P10520 whole entry): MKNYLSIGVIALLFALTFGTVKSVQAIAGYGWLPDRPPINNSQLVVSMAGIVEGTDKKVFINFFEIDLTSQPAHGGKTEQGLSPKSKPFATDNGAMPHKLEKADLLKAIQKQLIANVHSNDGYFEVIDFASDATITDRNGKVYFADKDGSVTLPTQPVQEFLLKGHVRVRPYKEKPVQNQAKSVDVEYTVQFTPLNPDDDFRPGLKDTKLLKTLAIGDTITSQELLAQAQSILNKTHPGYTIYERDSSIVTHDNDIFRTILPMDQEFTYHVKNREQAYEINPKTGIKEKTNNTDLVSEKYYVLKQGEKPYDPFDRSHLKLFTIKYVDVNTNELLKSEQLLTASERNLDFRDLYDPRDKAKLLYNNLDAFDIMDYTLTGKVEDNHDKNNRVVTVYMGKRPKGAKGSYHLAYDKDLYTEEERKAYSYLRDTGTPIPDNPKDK

cells [4] = assay type: functional, cell-based; remark: listed apart in the source
[5] = CRF-BP/CRF-R2 complex antagonists, dose response, cell-based, uHTS hits, 384-well (AID 651639); assay type: functional, Homo sapiens; settings: read-out: IC50_Mean
SUMO-activating enzyme = SUMO-activating enzyme (Homo sapiens, UniProt Q9UBT2); assay: SUMOylation inhibitor hit validation, confirmation, SUMOylation inhibitor project, biochemical, AlphaScreen (AID 2018); assay type: functional
[6] = target: T3, Corticotropin-releasing factor receptor 2/Corticotropin-releasing factor-binding protein (Homo sapiens, UniProt P24387+Q13324); assay: Dose Response confirmation of uHTS hits for small molecule antagonists of the CRF-binding protein and CRF-R2 receptor complex.; assay type: functional; settings: read-out: IC50_Mean
T3 sequence (Q13324 whole entry): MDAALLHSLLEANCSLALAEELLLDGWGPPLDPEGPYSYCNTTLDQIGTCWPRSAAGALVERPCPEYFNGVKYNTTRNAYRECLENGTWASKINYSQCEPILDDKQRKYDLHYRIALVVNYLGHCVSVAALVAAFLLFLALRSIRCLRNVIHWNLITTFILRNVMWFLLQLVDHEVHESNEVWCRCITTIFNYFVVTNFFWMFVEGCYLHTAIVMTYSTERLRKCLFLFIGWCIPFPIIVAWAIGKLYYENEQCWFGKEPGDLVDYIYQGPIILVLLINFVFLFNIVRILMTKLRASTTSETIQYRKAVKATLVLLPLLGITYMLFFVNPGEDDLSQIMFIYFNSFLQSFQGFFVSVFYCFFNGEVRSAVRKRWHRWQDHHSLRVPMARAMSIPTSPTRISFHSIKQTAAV
T3 sequence (P24387 whole entry): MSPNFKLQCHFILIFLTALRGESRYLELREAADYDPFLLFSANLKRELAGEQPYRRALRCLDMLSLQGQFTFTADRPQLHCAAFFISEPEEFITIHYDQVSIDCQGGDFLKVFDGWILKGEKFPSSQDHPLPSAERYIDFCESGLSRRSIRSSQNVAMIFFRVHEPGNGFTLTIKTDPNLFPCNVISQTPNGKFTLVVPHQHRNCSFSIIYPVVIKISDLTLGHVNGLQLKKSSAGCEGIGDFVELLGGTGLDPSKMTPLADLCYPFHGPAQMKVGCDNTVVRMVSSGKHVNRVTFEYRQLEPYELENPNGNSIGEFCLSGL

[7] = target: T3, Corticotropin-releasing factor receptor 2/Corticotropin-releasing factor-binding protein; assay: activators of CRF receptor 2 with binding protein – uHTS hits, confirmation (AID 602473); assay type: functional; settings: read-out: EC50_Mean
[8] = target: T4, Sentrin-specific protease 8 (Homo sapiens, UniProt Q96LD8); assay type: functional
T4 sequence (Q96LD8 whole entry): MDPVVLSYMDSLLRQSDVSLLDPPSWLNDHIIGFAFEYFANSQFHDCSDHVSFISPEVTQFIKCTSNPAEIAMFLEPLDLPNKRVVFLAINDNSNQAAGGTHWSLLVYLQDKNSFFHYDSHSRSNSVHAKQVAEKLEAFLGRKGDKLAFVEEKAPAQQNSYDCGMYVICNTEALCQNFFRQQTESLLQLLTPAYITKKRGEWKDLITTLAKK

[9] = target: T5, Replicative DNA helicase DnaB (Mycobacterium tuberculosis, UniProt P9WMR3); assay: DnaB intein splicing inhibitors, dose response, biochemical, cell-free fluorescence (AID 449749); assay type: functional
T5 sequence (P9WMR3 whole entry): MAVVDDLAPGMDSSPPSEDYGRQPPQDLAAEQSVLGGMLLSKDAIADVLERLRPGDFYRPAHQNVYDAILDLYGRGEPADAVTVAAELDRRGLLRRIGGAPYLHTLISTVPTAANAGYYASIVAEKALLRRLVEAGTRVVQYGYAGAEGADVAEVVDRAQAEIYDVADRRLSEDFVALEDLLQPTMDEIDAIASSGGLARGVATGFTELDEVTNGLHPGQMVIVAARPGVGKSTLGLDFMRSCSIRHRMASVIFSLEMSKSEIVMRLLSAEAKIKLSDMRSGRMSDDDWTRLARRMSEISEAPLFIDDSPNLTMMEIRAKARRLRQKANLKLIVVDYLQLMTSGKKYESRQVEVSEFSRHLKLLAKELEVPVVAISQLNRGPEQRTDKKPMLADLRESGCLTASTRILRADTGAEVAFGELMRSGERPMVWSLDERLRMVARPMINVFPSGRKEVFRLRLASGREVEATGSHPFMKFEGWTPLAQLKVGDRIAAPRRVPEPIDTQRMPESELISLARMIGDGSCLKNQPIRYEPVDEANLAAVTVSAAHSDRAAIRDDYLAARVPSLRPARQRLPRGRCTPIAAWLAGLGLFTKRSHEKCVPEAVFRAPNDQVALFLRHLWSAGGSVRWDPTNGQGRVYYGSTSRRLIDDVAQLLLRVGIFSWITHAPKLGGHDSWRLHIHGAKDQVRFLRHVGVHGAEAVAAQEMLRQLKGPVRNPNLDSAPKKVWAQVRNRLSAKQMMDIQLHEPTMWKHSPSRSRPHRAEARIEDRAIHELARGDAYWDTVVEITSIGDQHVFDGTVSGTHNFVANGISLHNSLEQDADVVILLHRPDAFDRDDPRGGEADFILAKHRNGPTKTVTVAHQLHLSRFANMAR

Protein RecA = target: T6, Protein RecA (Mycobacterium tuberculosis, UniProt P9WHJ3); assay: Fluorescence Cell-Free Homogeneous Dose Retest to Identify Inhibitors of RecA-Intein Splicing Activity. [Related pubchem assays (depositor defined):AID2097, AID2223, AID489010, AID492950]; assay type: functional
T6 sequence (P9WHJ3 whole entry): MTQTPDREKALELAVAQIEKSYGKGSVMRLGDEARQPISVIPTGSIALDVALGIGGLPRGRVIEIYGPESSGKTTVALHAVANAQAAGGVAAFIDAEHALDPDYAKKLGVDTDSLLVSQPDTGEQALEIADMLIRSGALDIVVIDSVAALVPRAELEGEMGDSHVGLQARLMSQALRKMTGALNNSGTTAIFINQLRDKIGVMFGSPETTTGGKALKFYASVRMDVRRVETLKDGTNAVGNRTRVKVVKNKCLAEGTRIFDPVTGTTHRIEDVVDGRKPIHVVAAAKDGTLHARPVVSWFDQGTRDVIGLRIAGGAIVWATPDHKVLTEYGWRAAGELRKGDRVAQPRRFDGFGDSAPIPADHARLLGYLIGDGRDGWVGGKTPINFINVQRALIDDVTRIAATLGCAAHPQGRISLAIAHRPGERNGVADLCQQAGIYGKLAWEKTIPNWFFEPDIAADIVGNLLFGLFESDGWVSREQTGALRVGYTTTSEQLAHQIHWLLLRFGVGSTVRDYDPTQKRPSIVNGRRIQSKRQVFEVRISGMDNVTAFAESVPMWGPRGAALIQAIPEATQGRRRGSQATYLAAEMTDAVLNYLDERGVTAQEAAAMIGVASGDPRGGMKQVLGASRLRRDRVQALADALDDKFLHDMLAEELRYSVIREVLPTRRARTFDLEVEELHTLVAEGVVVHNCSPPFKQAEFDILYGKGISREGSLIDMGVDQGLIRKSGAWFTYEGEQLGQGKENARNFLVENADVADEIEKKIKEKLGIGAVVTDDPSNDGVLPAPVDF

[10] = target: T4, Sentrin-specific protease 8; assay type: functional; remark: listed apart in the source
Cytochrome P450 2C9 = Cytochrome P450 2C9 (Homo sapiens, UniProt P11712)
[11] = target: Induced myeloid leukemia cell differentiation protein Mcl-1 (Homo sapiens, UniProt Q07820); assay type: functional
[12] = AlphaScreen signal interference compounds, dose response, artefact control for ARNT-TACC3 interaction inhibitor project, biochemical, luminescence, cherry-pick (AID 651705); assay type: functional;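 also: AlphaScreen bead proximity signal that flags compounds interfering with the detection technology; potency reflects signal decrease which marks the compound as an assay artifact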
[13] = target: T7, Rac GTPase-activating protein 1 (Homo sapiens, UniProt Q9H0H5); assay: MgcRacGAP GTPase-activating activity inhibitors, confirmation, biochemical, ADP Hunter fluorescence, primary and confirmatory (AID 624330); assay type: functional
T7 sequence (Q9H0H5 whole entry): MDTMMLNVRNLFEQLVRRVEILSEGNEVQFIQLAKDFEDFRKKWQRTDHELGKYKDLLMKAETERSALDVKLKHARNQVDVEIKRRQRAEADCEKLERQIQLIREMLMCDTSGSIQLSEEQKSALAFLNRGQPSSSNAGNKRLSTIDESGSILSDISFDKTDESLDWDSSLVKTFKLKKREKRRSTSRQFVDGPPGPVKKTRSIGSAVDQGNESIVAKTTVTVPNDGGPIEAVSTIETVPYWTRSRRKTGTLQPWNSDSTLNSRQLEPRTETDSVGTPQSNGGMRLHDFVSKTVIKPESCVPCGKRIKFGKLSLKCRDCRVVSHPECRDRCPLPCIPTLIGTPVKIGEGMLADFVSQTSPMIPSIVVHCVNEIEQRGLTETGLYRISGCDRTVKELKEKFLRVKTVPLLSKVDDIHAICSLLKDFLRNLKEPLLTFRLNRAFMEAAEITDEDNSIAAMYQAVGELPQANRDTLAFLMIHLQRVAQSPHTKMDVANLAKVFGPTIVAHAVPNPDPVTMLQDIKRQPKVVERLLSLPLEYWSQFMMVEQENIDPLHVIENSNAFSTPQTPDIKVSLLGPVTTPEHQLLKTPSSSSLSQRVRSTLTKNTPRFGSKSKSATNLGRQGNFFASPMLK

[14] = target: Glucose-6-phosphate 1-dehydrogenase (Homo sapiens, UniProt P11413); assay: human G6PD enzyme inhibitors, dose response, selectivity assay for P. falciparum G6PD inhibitor project, biochemical, fluorescence (AID 504792); assay type: functional
[15] = target: SWI/SNF-related matrix-associated actin-dependent regulator of chromatin subfamily A member 2 (Homo sapiens, UniProt P51531); assay: Luminescence-based cell-based high throughput dose response assay to identify activators of the function of SWI/SNF related, matrix associated, actin dependent regulator of chromatin, subfamily a, member 2 (SMARCA2, BRM).; assay type: functional
[16] = Counterscreen for activators of the function of SWI/SNF related, matrix associated, actin dependent regulator of chromatin, subfamily a, member 2 (SMARCA2, BRM): Luminescence-based cell-based high throughput dose response assay to identify non-selective compounds using the VP16 reporter assay.; assay type: functional

T1 sequence (P63165 whole entry): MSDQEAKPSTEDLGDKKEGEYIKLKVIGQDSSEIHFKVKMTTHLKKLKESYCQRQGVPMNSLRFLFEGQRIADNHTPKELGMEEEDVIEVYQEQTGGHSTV
Sequence of Induced myeloid leukemia cell differentiation protein Mcl-1 (Q07820 whole entry): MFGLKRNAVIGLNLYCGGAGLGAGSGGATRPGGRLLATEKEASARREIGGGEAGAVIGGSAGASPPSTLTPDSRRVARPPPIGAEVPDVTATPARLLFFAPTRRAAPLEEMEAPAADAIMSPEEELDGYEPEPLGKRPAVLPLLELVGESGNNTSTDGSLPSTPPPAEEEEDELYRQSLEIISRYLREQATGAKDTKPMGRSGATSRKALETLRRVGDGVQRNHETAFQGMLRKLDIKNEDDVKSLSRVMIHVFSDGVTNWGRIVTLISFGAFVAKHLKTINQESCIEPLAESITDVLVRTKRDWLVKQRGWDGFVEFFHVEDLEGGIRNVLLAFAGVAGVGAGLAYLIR
Sequence of Cytochrome P450 2C9 (P11712 whole entry): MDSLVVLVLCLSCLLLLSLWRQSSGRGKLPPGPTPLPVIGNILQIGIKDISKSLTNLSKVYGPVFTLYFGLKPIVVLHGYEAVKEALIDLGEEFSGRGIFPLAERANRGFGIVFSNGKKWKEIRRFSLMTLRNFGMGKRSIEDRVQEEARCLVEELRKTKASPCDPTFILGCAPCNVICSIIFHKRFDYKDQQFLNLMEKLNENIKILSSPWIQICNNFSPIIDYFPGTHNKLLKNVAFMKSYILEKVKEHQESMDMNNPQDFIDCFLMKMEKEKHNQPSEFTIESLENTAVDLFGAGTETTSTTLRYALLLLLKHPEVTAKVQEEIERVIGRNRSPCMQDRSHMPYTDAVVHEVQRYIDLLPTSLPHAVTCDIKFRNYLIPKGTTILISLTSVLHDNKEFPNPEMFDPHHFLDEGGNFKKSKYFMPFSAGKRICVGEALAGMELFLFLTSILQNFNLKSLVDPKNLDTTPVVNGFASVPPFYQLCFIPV
Sequence of SUMO-activating enzyme (Q9UBE0 whole entry): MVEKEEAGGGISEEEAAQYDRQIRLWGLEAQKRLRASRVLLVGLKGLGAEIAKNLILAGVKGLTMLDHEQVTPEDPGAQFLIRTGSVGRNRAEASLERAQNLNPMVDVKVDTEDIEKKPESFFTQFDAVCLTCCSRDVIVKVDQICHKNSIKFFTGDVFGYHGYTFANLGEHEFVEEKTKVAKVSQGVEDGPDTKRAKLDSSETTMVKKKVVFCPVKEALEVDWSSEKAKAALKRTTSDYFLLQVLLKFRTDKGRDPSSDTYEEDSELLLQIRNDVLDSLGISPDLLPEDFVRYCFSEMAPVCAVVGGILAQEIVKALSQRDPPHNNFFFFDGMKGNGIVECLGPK
Sequence of SUMO-activating enzyme (Q9UBT2 whole entry): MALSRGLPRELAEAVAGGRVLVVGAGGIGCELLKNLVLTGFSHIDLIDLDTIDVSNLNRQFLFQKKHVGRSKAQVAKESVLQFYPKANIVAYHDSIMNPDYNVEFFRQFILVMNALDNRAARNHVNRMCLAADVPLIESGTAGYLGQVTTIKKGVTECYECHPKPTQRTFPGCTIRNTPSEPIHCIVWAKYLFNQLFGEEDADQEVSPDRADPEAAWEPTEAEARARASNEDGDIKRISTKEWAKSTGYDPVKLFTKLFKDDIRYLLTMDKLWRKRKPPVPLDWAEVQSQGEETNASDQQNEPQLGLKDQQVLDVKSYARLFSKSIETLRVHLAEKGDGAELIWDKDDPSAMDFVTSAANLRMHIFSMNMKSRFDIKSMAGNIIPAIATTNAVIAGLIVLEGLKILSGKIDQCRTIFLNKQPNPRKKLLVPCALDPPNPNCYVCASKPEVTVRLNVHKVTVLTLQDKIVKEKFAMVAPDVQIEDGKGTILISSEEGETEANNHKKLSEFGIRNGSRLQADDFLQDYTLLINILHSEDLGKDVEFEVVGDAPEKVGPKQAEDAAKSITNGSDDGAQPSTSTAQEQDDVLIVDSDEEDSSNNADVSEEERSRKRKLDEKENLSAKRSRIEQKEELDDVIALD
Sequence of Glucose-6-phosphate 1-dehydrogenase (P11413 whole entry): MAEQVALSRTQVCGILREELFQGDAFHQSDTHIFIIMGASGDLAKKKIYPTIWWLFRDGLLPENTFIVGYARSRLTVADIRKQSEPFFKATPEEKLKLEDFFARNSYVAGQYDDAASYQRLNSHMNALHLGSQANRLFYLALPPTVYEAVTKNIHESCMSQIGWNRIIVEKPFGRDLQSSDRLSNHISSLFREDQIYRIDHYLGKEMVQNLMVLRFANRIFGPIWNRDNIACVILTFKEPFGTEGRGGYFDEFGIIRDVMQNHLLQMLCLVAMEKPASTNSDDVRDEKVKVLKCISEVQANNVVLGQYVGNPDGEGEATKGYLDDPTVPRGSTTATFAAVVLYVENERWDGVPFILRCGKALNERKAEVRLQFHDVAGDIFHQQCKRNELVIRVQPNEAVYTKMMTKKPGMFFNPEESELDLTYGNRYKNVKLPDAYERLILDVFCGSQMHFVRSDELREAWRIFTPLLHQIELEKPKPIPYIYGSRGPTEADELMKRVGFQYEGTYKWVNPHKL
Sequence of SWI/SNF-related matrix-associated actin-dependent regulator of chromatin subfamily A member 2 (P51531 whole entry): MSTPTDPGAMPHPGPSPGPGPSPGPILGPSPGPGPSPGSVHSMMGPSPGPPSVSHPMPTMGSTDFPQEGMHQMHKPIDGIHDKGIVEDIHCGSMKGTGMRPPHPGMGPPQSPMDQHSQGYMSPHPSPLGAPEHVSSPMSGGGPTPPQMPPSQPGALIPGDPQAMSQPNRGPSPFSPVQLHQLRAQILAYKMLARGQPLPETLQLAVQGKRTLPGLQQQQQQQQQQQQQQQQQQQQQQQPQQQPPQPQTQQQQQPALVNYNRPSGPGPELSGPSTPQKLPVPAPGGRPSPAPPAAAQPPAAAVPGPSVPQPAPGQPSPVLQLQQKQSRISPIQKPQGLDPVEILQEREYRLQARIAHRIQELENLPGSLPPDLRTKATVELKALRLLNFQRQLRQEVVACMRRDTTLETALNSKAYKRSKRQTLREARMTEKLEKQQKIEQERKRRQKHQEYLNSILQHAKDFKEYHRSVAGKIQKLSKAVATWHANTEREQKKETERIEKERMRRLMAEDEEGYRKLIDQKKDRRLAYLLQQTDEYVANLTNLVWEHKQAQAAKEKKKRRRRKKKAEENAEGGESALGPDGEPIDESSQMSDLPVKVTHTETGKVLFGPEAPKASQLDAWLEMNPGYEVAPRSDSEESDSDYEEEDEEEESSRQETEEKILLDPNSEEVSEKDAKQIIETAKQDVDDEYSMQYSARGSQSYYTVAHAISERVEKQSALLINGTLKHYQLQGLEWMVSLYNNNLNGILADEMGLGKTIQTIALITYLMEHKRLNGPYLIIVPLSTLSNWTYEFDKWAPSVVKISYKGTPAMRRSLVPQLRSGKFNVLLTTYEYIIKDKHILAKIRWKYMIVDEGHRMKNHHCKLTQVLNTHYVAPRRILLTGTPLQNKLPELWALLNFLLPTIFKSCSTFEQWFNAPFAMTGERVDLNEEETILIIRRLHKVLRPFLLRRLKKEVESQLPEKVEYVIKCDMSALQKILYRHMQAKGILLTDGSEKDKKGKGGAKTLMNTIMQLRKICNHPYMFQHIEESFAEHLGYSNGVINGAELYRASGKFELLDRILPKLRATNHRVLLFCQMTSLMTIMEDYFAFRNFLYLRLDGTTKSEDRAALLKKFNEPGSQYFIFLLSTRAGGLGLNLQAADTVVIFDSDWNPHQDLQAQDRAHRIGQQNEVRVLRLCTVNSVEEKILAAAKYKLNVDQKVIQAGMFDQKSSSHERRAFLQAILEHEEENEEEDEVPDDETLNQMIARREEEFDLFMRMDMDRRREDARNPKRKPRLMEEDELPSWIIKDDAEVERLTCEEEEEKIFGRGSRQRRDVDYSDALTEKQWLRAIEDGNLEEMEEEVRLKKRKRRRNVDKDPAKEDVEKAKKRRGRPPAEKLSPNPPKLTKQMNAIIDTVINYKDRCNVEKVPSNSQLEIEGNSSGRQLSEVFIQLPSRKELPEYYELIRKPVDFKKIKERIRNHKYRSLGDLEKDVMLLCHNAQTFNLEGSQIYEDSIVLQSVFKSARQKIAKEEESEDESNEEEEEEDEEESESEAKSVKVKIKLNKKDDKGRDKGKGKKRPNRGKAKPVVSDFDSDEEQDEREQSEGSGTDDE

## N#C/C(=C\c1ccc(/C=C(/C#N)c2nn(CCO)c(N)c2C#N)cc1)c1nn(CCO)c(N)c1C#N
Cells [1]
  EC50: > 350 µM (not active)
Streptococcus
  EC50: > 150 µM (not active)
[2]
  IC50: 2.85 µM (active)
[3]
  IC50: > 66.6 µM (inactive)
Streptokinase A
  EC50: > 150 µM (not active)
Cells [4]
  EC50: > 350 µM (not active)

## COc1ccc(NC(S)=NCc2cccnc2)cc1
Cells [1]
  EC50: > 350 µM (not active)
[5]
  IC50: 17.8 µM (active)
Cells [4]
  EC50: > 350 µM (not active)

## COC(=O)c1nc2n(n1)C(c1ccc([N+](=O)[O-])cc1)C(C(=O)Nc1ccc(Cl)cc1)=C(C)N2 (stereo not drawn)
SUMO-activating enzyme
  IC50: 32.4 µM (active)
[6]
  IC50: 17.8 µM (active)
[5]
  IC50: > 20 µM (inactive)
[7]
  EC50: > 53 µM (inactive)

## COc1cc(C(c2c(C)[nH][nH]c2=O)c2c(C)[nH][nH]c2=O)ccc1OS(=O)(=O)c1ccc(C)cc1
[8]
  IC50: 35.4 µM (active)
[9]
  AC50: 0.484 µM (active)
Protein RecA
  EC50: 0.195 µM (active)
[10]
  IC50: 20.4 µM (active)

## Cc1nc(-c2c(C(F)(F)F)noc2-c2ccc(O)cc2O)cs1
[6]
  IC50: 22.7 µM (active)
Cytochrome P450 2C9
  AC50: 3.16 µM (inconclusive)
[5]
  IC50: > 20 µM (inactive)
[7]
  EC50: > 53 µM (inactive)

## CCOC(=O)c1c(OCC)[nH]c2c1cc(O)c1ccccc12
[11]
  IC50: 0.935 µM (active)
[9]
  AC50: > 380 µM (inconclusive)
[12]
  AC50: 93 µM (active)
Protein RecA
  EC50: 2.64 µM (active)
[13]
  IC50: 63.5 µM (active)
[14]
  IC50: > 80 µM (inactive)

## COc1ccc(C2Nc3ccccc3C(=O)N2c2ccc(C)cc2)cc1COc1ccccn1 (stereo not drawn)
[15]
  EC50: > 91.1 µM (inactive)
[16]
  EC50: > 91.1 µM (inactive)

## COc1ccc(CCNC(=O)c2cc3c(=O)n4cccc(C)c4nc3s2)cc1OC
[2]
  IC50: 100 µM (inactive)
[3]
  IC50: > 66.6 µM (inactive)

## O=C(Nc1c(-c2ccc(Cl)cc2)n[nH]c1O)c1ccc(Br)cc1
[8]
  IC50: 48 µM (active)
[10]
  IC50: 34.1 µM (active)
